This is an account of results in US12116358B2, “Substituted indoles and methods of use thereof” (EPIZYME, INC., priority 2018, dated 2024).

One test deals with H3K36me3 in A549 cells. Nature of the test: In-Cell Western (ICW) assay of SETD2 inhibitors (A549 assay). In kind it is cell-based, human. The settings on record: A549 cells, read-out: SETD2 A549. The procedure, abridged:
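H3K36me3 In-Cell Western: cells exposed to compound for 3 days at 4,000 cells/well, 37° C. DRAQ5 (1:1000) marked cell number, with 700/800-channel Licor read-out.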

A further test addresses T1, SETD2(1434-1711) (Homo sapiens, UniProt Q9BYW2).
T1 construct: SETD2 (1434-1711) Assay; catalogue N/A
T1 sequence (Q9BYW2 1434-1711): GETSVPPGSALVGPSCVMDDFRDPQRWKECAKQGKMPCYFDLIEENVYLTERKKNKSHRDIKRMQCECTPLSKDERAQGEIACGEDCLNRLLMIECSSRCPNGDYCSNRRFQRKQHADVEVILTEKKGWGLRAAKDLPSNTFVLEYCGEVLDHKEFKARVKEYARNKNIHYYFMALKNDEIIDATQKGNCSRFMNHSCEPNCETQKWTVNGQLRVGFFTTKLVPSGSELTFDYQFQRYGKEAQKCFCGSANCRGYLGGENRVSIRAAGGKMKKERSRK
Nature of the test: SETD2 (1434-1711) assay. It is filed as biochemical. The following applies: read-out: SETD2 (1434-1711).

Like-named read-outs stand apart in the source and are kept apart here.

For `CN[C@H]1CCN([C@H]2CCC[C@@H](NC(=O)c3cc4c(F)ccc(C)c4[nH]3)C2)C1` [compound 1087], the IC50 in the test on H3K36me3 in A549 cells (Homo sapiens) was determined as 0.5 µM; at SETD2(1434-1711) it was 0.01 µM.
As for `CN[C@H]1CCN([C@@H]2CCC[C@@H](NC(=O)c3cc4c(F)ccc(C)c4[nH]3)C2)C1` [compound 1088], the IC50 is greater than 2 µM in the test with H3K36me3 in A549 cells (Homo sapiens) and 2.2 µM on SETD2(1434-1711).
The corresponding values for `Cc1ccc(F)c2cc(C(=O)N[C@@H]3CCC[C@H](N4CC[C@H](N(C)C)C4=O)C3)[nH]c12` [compound 1090] are 1.1 µM and 0.5 µM.
On the same counts, the results for `CC(=O)N1CCN([C@@H]2CCC[C@@H](NC(=O)c3cc4c(F)ccc(C)c4[nH]3)C2)[C@H](C)C1` [compound 1091] are greater than 2 µM and 5.8 µM.
On the same counts, the results for `CC(=O)N1CCN([C@H]2CCC[C@@H](NC(=O)c3cc4c(F)ccc(C)c4[nH]3)C2)[C@H](C)C1` [compound 1092] are 0.8 µM and 0.8 µM.
With `CC[C@@H]1CN([C@@H]2CCC[C@@H](NC(=O)c3cc4c(F)ccc(C)c4[nH]3)C2)CCN1C(C)=O` [compound 1095], the IC50 is greater than 2 µM with H3K36me3 in A549 cells (Homo sapiens) and 0.6 µM on SETD2(1434-1711).
On the same counts, the results for `CC(=O)N1[C@H](C)CN([C@@H]2CCC[C@@H](NC(=O)c3cc4c(F)ccc(C)c4[nH]3)C2)C[C@@H]1C` [compound 1096] are greater than 2 µM and 2.4 µM.
The corresponding values for `CC(=O)N1CCN([C@H]2CCC[C@@H](NC(=O)c3cc4c(F)ccc(C)c4[nH]3)C2)C[C@H]1CO` [compound 1098] are 0.3 µM and 0.03 µM.
The corresponding values for `CC(=O)N1CCN([C@H]2CCC[C@@H](NC(=O)c3cc4c(F)ccc(C)c4[nH]3)C2)C[C@@H]1CO` [compound 1099] are 0.1 µM and 0.01 µM.
Consider `CC(=O)N1CCN([C@@H]2CCC[C@@H](NC(=O)c3cc4c(F)ccc(C)c4[nH]3)C2)CC12CC2` [compound 1100], for which the IC50 is greater than 2 µM in the test with H3K36me3 in A549 cells (Homo sapiens) and 0.9 µM on SETD2(1434-1711).
Consider `Cc1ccc(F)c2cc(C(=O)NC3CCCC(N4CCN5C(=O)CN(C)C(=O)C5C4)C3)[nH]c12` (stereo not drawn) [compound 1102], for which the IC50 in the test on H3K36me3 in A549 cells was greater than 2 µM; at SETD2(1434-1711), 3.9 µM.
The corresponding values for `Cc1ccc(F)c2cc(C(=O)NC3CCCC(N4CCN5C(=O)CN(C)C(=O)C5C4)C3)[nH]c12` (stereo not drawn) [compound 1103] are 0.1 µM and 0.1 µM.
The corresponding values for `Cc1ccc(F)c2cc(C(=O)NC3CCCC(N4CCN5C(=O)CN(C)C(=O)C5C4)C3)[nH]c12` (stereo not drawn) [compound 1104] are 0.2 µM and 0.04 µM.
Consider `CC(=O)N1CCN([C@H]2C[C@H](NC(=O)c3cc4c(F)ccc(C)c4[nH]3)CN(C)C2)CC1` [compound 1107], for which the IC50 is greater than 2 µM with H3K36me3 in A549 cells (Homo sapiens) and 5.3 µM on SETD2(1434-1711).
On the same counts, the results for `CC(=O)N1CCN([C@@H]2C[C@@H](NC(=O)c3cc4c(F)ccc(C)c4[nH]3)CN(C)C2)CC1` [compound 1108] are greater than 2 µM and greater than 10 µM.
In the case of `CC(=O)N1CCN(C2CC(NC(=O)c3cc4c(F)ccc(C)c4[nH]3)CN(C)C2)CC1` (stereo not drawn) [compound 1109], the IC50 with H3K36me3 in A549 cells was greater than 2 µM; at SETD2(1434-1711), greater than 10 µM.
The corresponding values for `Cc1ccc(F)c2cc(C(=O)NC3CCCC(N4CCN5C(=O)OCC5C4)C3)[nH]c12` (stereo not drawn) [compound 1111] are 0.07 µM and 0.02 µM.
`Cc1ccc(F)c2cc(C(=O)N[C@@H]3CCC[C@H](N4CCN(C(=O)C(C)C)C(C(F)(F)F)C4)C3)[nH]c12` (stereo partly drawn) [compound 1112]: the IC50 in the test on H3K36me3 in A549 cells (Homo sapiens) and at SETD2(1434-1711) was 0.02 µM each time.
Take `CCC(=O)N1CCN([C@H]2CCC[C@@H](NC(=O)c3cc4c(F)ccc(C)c4[nH]3)C2)CC1C(F)(F)F` (stereo partly drawn) [compound 1113]: the IC50 in the test with H3K36me3 in A549 cells (Homo sapiens) and at SETD2(1434-1711) was 0.01 µM each time.
In the case of `CN/C(=N\C#N)N1CCN([C@H]2CCC[C@@H](NC(=O)c3cc4c(F)ccc(C)c4[nH]3)C2)CC1` [compound 1114], the IC50 in the test on H3K36me3 in A549 cells (Homo sapiens) turned out to be 1.6 µM; at SETD2(1434-1711) it was 0.04 µM.
For the compound `CN/C(=C\[N+](=O)[O-])N1CCN([C@H]2CCC[C@@H](NC(=O)c3cc4c(F)ccc(C)c4[nH]3)C2)CC1` [compound 1115], the IC50 in the test on H3K36me3 in A549 cells (Homo sapiens) worked out at 0.2 µM; on SETD2(1434-1711) it was 0.03 µM.
In the case of `C/C(=N\C#N)N1CCN([C@H]2CCC[C@@H](NC(=O)c3cc4c(F)ccc(C)c4[nH]3)C2)CC1` [compound 1116], the values for the IC50 in the test with H3K36me3 in A549 cells (Homo sapiens) and on SETD2(1434-1711) were 0.05 µM and 0.02 µM, respectively.
As for `Cc1ccc(F)c2cc(C(=O)NC3CCCC(N4CCN(C(=O)CO)C(C(F)(F)F)C4)C3)[nH]c12` (stereo not drawn) [compound 1117], the IC50 turned out to be 0.01 µM in the test on H3K36me3 in A549 cells and 0.03 µM at SETD2(1434-1711).
The corresponding values for `CCN(C(=O)CO)C1CCN(C2CCCC(NC(=O)c3cc4c(F)ccc(C)c4[nH]3)C2)C1` (stereo not drawn) [compound 1120] are greater than 2 µM and 5.9 µM.
Consider `CCN(C1CCN(C2CCCC(NC(=O)c3cc4c(F)ccc(C)c4[nH]3)C2)C1)S(C)(=O)=O` (stereo not drawn) [compound 1122], for which the figures for the IC50 with H3K36me3 in A549 cells and at SETD2(1434-1711) were greater than 2 µM and 1.9 µM, respectively.
On the same counts, the results for `CC(=O)N1C(C)CN(C2CCCC(NC(=O)c3cc4c(F)ccc(C)c4[nH]3)C2)CC1C` (stereo not drawn) [compound 1123] are 1.4 µM and 0.5 µM.
On the same counts, the results for `CC(=O)N1CCC(C2CCCC(NC(=O)c3cc4c(F)ccc(C)c4[nH]3)C2)CC1` (stereo not drawn) [compound 1124] are 0.8 µM and 0.2 µM.
For the compound `Cc1ccc(F)c2cc(C(=O)N[C@@H]3CCC[C@H](N4CCN5C(=O)N(C)C[C@H]5C4)C3)[nH]c12` [compound 1126], the IC50 is 0.08 µM in the test on H3K36me3 in A549 cells (Homo sapiens) and 0.02 µM on SETD2(1434-1711).
On the same counts, the results for `Cc1ccc(F)c2cc(C(=O)N[C@@H]3CCC[C@@H](N4CCN5C(=O)N(C)C[C@@H]5C4)C3)[nH]c12` [compound 1127] are 1.3 µM and 0.4 µM.
On the same counts, the results for `Cc1ccc(F)c2cc(C(=O)N[C@@H]3CCC[C@@H](N4CCN5C(=O)N(C)C[C@H]5C4)C3)[nH]c12` [compound 1128] are 1.6 µM and 0.3 µM.
Turning to `CCN(C(=O)CO)C1CCN(C2CCCC(NC(=O)c3cc4c(F)ccc(C)c4[nH]3)C2)C1` (stereo not drawn) [compound 1129], the figures for the IC50 with H3K36me3 in A549 cells and on SETD2(1434-1711) were 0.1 µM and 0.01 µM, respectively.
On the same counts, the results for `CCN(C(=O)CO)C1CCN(C2CCCC(NC(=O)c3cc4c(F)ccc(C)c4[nH]3)C2)C1` (stereo not drawn) [compound 1130] are greater than 2 µM and 4 µM.
On the same counts, the results for `CCN(C1CCN(C2CCCC(NC(=O)c3cc4c(F)ccc(C)c4[nH]3)C2)C1)S(C)(=O)=O` (stereo not drawn) [compound 1131] are 0.04 µM and 0.006 µM.
On the same counts, the results for `CCN(C1CCN(C2CCCC(NC(=O)c3cc4c(F)ccc(C)c4[nH]3)C2)C1)S(C)(=O)=O` (stereo not drawn) [compound 1132] are greater than 2 µM and 2.3 µM.
For `Cc1ccc(F)c2cc(C(=O)NC3CCCC(N4CCN5C(=O)OCC5C4)C3)[nH]c12` (stereo not drawn) [compound 1134], the results for the IC50 with H3K36me3 in A549 cells and at SETD2(1434-1711) were greater than 2 µM and 1 µM, respectively.
On the same counts, the results for `Cc1ccc(F)c2cc(C(=O)NC3CCCC(N4CCN5C(=O)OCC5C4)C3)[nH]c12` (stereo not drawn) [compound 1135] are 0.07 µM and 0.02 µM.
On to `Cc1ccc(F)c2cc(C(=O)NC3CCCC(N4CCN5C(=O)OCC5C4)C3)[nH]c12` (stereo not drawn) [compound 1136], for which the IC50 in the test with H3K36me3 in A549 cells was greater than 2 µM; at SETD2(1434-1711) it was 0.7 µM.
For `CC(=O)N1CCN(C2CCCC(NC(=O)c3cc4c(F)ccc(C)c4[nH]3)C2)C2(CC2)C1` (stereo not drawn) [compound 1137], the values for the IC50 in the test with H3K36me3 in A549 cells and on SETD2(1434-1711) were greater than 2 µM and 2 µM, respectively.
The corresponding values for `Cc1ccc(F)c2cc(C(=O)NC3CCCC(N4CCN5C(=O)COCC5C4)C3)[nH]c12` (stereo not drawn) [compound 1138] are 0.02 µM and 0.01 µM.
On the same counts, the results for `Cc1ccc(F)c2cc(C(=O)NC3CCCC(N4CCN5C(=O)COCC5C4)C3)[nH]c12` (stereo not drawn) [compound 1139] are 1.7 µM and 0.5 µM.
On the same counts, the results for `Cc1ccc(F)c2cc(C(=O)NC3CCCC(N4CCN5C(=O)COCC5C4)C3)[nH]c12` (stereo not drawn) [compound 1140] are 0.1 µM and 0.05 µM.
Consider `Cc1ccc(F)c2cc(C(=O)NC3CCCC(N4CCN5C(=O)COCC5C4)C3)[nH]c12` (stereo not drawn) [compound 1141], for which the IC50 with H3K36me3 in A549 cells turned out to be 1.3 µM; at SETD2(1434-1711), 0.4 µM.
Regarding `Cc1ccc(F)c2cc(C(=O)NC3CCCC(N4CCn5c(nn(C)c5=O)C4)C3)[nH]c12` (stereo not drawn) [compound 1142], the IC50 is greater than 2 µM in the test with H3K36me3 in A549 cells and 4.8 µM at SETD2(1434-1711).
With `Cc1ccc(F)c2cc(C(=O)N[C@@H]3CCC[C@@H](N4CCn5c(cccc5=O)C4)C3)[nH]c12` [compound 1143], the results for the IC50 in the test with H3K36me3 in A549 cells and on SETD2(1434-1711) were greater than 2 µM and 1.9 µM, respectively.
With `Cc1ccc(F)c2cc(C(=O)NC3CCCC(N4CCC(N(C)C(=O)C(C)(C)O)C4)C3)[nH]c12` (stereo not drawn) [compound 1145], the IC50 in the test on H3K36me3 in A549 cells is greater than 2 µM; on SETD2(1434-1711), 1.8 µM.
On the same counts, the results for `Cc1ccc(F)c2cc(C(=O)NC3CCCC(N4CCC(N(C)C(=O)C(C)(C)O)C4)C3)[nH]c12` (stereo not drawn) [compound 1146] are 0.2 µM and 0.04 µM.
As to `Cc1ccc(F)c2cc(C(=O)NC3CCCC(N4CCC(N(C)C(=O)C(C)(C)O)C4)C3)[nH]c12` (stereo not drawn) [compound 1147], the IC50 with H3K36me3 in A549 cells is greater than 2 µM; at SETD2(1434-1711) it was 1.2 µM.
On the same counts, the results for `CC(=NC#N)N1CCN(C2CCCC(NC(=O)c3cc4c(F)ccc(C)c4[nH]3)C2)CC1` (stereo not drawn) [compound 1148] are greater than 2 µM and 0.9 µM.
